{
  "source": "patent US20240041830A1",
  "about": "“CIRCULATING BIOMARKERS OF RESPONSE TO PD-1/PD-L1 BLOCKADE AND GSK-3 INHIBITION” (Brown University, priority 2022, published 2024)",
  "assay_type_in_all_cases": "cell-based, human",
  "key": {"HCT-116": {"test_system": "HCT-116", "assay": "microarray analysis", "details": "HCT-116 by context; 24 hours vs untreated", "method": "(§1) Microarrays. A total of 0.5×10^6 tumor cells (HCT-116, HT-29, KM12C) were plated in a 6-well plate and allowed to adhere overnight before 24-hour treatment, as indicated. Then, 1×10^6 immune cells (NK92, TALL-104) were plated and treated with elraglusib as indicated for twenty-four h. RNA was isolated from cell pellets in batches of six using a RNeasy Plus Mini Kit (Cat #74134, Qiagen, Hilden, Germany). Acceptable RNA concentration and quality were verified with Nanodrop and Bioanalyzer measurements. GeneChip™ Human Transcriptome Array 2.0 assays were conducted according to manufacturer instructions in two batches using randomized samples to limit batch effects (Cat #902162, Applied Biosystems, Waltham, MA, USA). Applied Biosystems Transcriptomic Analysis Console (TAC) software (RRID: SCR_016519) was used to calculate fold changes in gene expression relative to the untreated control cells. Values were considered statistically significant for p values<0.05.\nThe inventors then utilized microarray analysis to gain insights into gene expression changes in colorectal cancer cell lines post-GSK-3 inhibition with elraglusib. Several colorectal cancer cell lines (HCT-116, HT-29, KM12C) were treated with elraglusib at IC-50 concentrations or DMSO as vehicle control for twenty-four hours. Treated versus untreated samples were compared in triplicate using microarray analysis FIG. 10. Results were calculated using a fold change (FC) cutoff of >1.5, <−1.5, and a minimum p-value of<0.05. HCT-116 cells had 340 differentially expressed genes post-treatment. FIG. 2C."}, "TALL-104 [1]": {"test_system": "TALL-104", "assay": "microarray analysis", "details": "1 μM, 24 hours, vs untreated", "method": "as §1\nMicroarray analysis was used to obtain insights into gene expression changes in immune cell lines post-GSK-3 inhibition with elraglusib. Immune cell lines (TALL-104, NK-92) were treated with elraglusib at IC50 concentrations or DMSO as vehicle control for twenty-four hours and treated versus untreated samples were compared in triplicate using microarray analysis. FIG. 11. Results were calculated using a fold-change (FC) cutoff of >1.5, <−1.5, and a minimum p-value of <0.05. NK-92 cells had sixty-one differentially expressed genes post-treatment (FIG. 3D). the inventors observed an increase in genes that promote immune cell proliferation (TNFSF14, RAB38) and control immune cell adhesion and migration (WNK1) post-elraglusib treatment.\nTABLE 12 description. TALL-104 immune cell microarray analysis. TALL-104 immune cells were treated with 1 μM elraglusib for 24 hours and treated versus untreated control samples were compared in triplicate via microarray analysis (N=3). Table showing differentially expressed genes of interest with their corresponding fold changes, p values, descriptions, and functions. Genes are ordered by fold change and were calculated using a fold change cutoff of >1.5, <−1.5, and a minimum p value of <0.05."}, "TALL-104 [2]": {"test_system": "TALL-104", "assay": "Western blot analysis", "details": "as treatment duration increased (0-72 hours)", "method": "Western blot analysis. Cells were plated in a 6-well plate and incubated overnight before the spent media was replaced with drugged media. Drug treatment lasted for indicated durations. Protein was extracted using radioimmunoprecipitation (RIPA) assay buffer (Cat #R0278, Sigma-Aldrich, St. Louis, MO, USA) containing cOmplete™, Mini, EDTA-free Protease Inhibitor Cocktail (Cat #4693159001, Roche, Basel, Switzerland) from sub-confluent cells. Denaturing sample buffer was added, samples were boiled at 95° C. for ten minutes, and an equal amount of protein lysate was electrophoresed through NuPAGE™ 4 to 12%, bis-Tris, 1.5 mm, Mini Protein Gels (Invitrogen, Waltham, MA, USA) then transferred to PVDF membranes. The PVDF membrane was blocked with 5% non-fat milk (Sigma-Aldrich, St. Louis, MO, USA) in 1× TTBS. Primary antibodies were incubated with the transferred PVDF membrane in blocking buffer at 4° C. overnight. […] The signal was detected using Pierce™ ECL Western Blotting Substrate (Cat #32106, Thermo Scientific, Waltham, MA, USA) and a Syngene Imaging System (RRID: SCR_015770).\nElraglusib enhances immune cell effector function. the inventors next analyzed immune cell lines (TALL-104, NK-92) using western blot analysis."}},
  "data": [
    {"smiles": "Cn1cc(C2=C(c3coc4ccc(F)cc34)C(=O)NC2=O)c2cc3c(cc21)OCO3", "note": "[elraglusib]", "values": [
      {"measurement": "CMTM4 fold change", "setting": "HCT-116", "value": "−1.84"},
      {"measurement": "NEK2 fold change", "setting": "HCT-116", "value": "−2.21"},
      {"measurement": "PPP1R1C fold change", "setting": "HCT-116", "value": 1.78},
      {"measurement": "ACVR1B Fold Change", "setting": "TALL-104 [1]", "value": "−1.61"},
      {"measurement": "BCL2A1 Fold Change", "setting": "TALL-104 [1]", "value": 1.63},
      {"measurement": "CAMK1D Fold Change", "setting": "TALL-104 [1]", "value": "−2.5"},
      {"measurement": "CCL3 Fold Change", "setting": "TALL-104 [1]", "value": 1.52},
      {"measurement": "CCR8 Fold Change", "setting": "TALL-104 [1]", "value": "−2.14"},
      {"measurement": "CD84 Fold Change", "setting": "TALL-104 [1]", "value": "−1.53"},
      {"measurement": "CKS1B Fold Change", "setting": "TALL-104 [1]", "value": 1.6},
      {"measurement": "DUSP6 Fold Change", "setting": "TALL-104 [1]", "value": "−1.66"},
      {"measurement": "HSPA1A Fold Change", "setting": "TALL-104 [1]", "value": "−1.63"},
      {"measurement": "KIF7 Fold Change", "setting": "TALL-104 [1]", "value": 1.56},
      {"measurement": "ORAI3 Fold Change", "setting": "TALL-104 [1]", "value": 1.51},
      {"measurement": "PPARA Fold Change", "setting": "TALL-104 [1]", "value": "−1.54"},
      {"measurement": "PTPN3 Fold Change", "setting": "TALL-104 [1]", "value": "−1.56"},
      {"measurement": "PTPN14 Fold Change", "setting": "TALL-104 [1]", "value": "−1.62"},
      {"measurement": "RNY4 Fold Change", "setting": "TALL-104 [1]", "value": 2.19},
      {"measurement": "RNY5 Fold Change", "setting": "TALL-104 [1]", "value": 1.66},
      {"measurement": "STX19 Fold Change", "setting": "TALL-104 [1]", "value": 1.58},
      {"measurement": "UBE3A Fold Change", "setting": "TALL-104 [1]", "value": "−1.73"},
      {"measurement": "VAMP8 Fold Change", "setting": "TALL-104 [1]", "value": 1.56},
      {"measurement": "Bcl-2 expression", "setting": "TALL-104 [2]", "value": "did not notice significant changes"},
      {"measurement": "NF-κB expression", "setting": "TALL-104 [2]", "value": "did not notice significant changes"}
    ]}
  ]
}
